# Source: patent US20240299572A1, “NITROGEN-CONTAINING COMPOUND, CONJUGATE CONTAINING SAID COMPOUND, AND APPLICATION THEREOF” (SHANGHAI DE NOVO PHARMATECH CO., LTD., priority 2021, published 2024)
# Target: T1, TLR7 (Homo sapiens, UniProt Q9NYK1)
# T1 construct: host or cells: HEK293 (HEK-BLUE-hTLR7)
# T1 sequence (Q9NYK1 27-1049): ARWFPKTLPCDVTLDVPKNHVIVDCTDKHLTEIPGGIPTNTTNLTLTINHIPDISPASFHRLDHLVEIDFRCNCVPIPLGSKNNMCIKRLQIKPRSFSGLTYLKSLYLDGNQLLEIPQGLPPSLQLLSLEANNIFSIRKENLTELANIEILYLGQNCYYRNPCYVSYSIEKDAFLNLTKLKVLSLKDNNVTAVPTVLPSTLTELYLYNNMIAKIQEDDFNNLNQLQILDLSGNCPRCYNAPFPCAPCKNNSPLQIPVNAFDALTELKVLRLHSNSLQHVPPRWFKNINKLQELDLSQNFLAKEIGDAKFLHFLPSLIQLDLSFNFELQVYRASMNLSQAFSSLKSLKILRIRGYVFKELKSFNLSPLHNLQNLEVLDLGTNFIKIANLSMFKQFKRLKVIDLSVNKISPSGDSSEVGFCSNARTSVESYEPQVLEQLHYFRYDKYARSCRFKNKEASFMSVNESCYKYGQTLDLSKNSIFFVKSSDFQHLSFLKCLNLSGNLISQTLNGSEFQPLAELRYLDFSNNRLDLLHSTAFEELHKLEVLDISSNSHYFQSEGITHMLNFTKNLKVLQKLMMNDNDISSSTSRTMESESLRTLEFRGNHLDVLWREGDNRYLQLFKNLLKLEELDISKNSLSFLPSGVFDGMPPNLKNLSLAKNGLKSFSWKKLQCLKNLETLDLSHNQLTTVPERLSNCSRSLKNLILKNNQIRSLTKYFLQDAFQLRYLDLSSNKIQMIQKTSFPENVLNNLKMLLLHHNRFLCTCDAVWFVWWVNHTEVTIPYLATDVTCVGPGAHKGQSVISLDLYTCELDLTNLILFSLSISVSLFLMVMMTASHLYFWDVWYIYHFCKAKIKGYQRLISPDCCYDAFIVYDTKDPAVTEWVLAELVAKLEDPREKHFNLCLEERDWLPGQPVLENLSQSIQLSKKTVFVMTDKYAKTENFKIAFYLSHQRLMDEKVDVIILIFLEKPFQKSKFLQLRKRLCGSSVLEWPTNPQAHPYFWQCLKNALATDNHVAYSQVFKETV
# Assay: Cell activity assay of TLR7 (HEK-BLUE-hTLR7, SEAP reporter, Quanti-Blue)
# Format: cell-based
# Details: HEK-BLUE-hTLR7 cells, 24 hours
# Protocol: (§1) In this experiment, TLR7 and TLR8 bioactivity assays of the compound of formula I were determined using a cellular test. This method was performed in human embryonic kidney cells (HEK293) expressing TLR family members such as TLR4, TLR7, TLR8, or TLR9. TLR agonist activates TLR, causing downstream NF-KB activation, thus activating the secreted embryonic alkaline phosphatase (SEAP) reporter gene. Quanti-Blue (InvivoGen) reagent was used to assay the SEAP activity, thus reflecting the activity of TLR7 and TLR8 agonists.
# (§2) The detailed experimental method is as follows:
# HEK-BLUE-hTLR7 and HEK-BLUE-hTLR8 cell lines were purchased from Invivogen company and cultured in DMEM medium containing 4.5 g/L glucose (Sigma-Aldrich) and 10% fetal bovine serum under a condition of a temperature of 37° C., a humidity of 95%, and 5% CO2. […]
# Cell treatment was as follows: The cells were removed from the incubator and centrifuged to remove the culture medium, resuspended in a T-150 flask with 10 mL of pre-warmed PBS. 12 mL of pre-warmed culture medium was added thereto, and the cells were pipetted gently up and down, and counted under a microscope. […]
# 20 μL/well of supernatant was pipetted into 180 μL of Quanti-Blue preheated to 37° C., and the mixture was incubated at 37° C. for 1.5 hours, and the absorbance (OD value) at 650 nm was measured with a spectrophotometer. […]
row,EC50 [nM],SMILES
1,> 2000,"CCCN(CCO)C(=O)C1=Cc2ccc(C(=O)Nc3cnc4c(c3)CNCC4)cc2N=C(N)C1 [Compound 13, 2-amino-N^4-(2-hydroxyethyl)-N^4-n-propyl-N^8-(5,6,7,8-tetrahydro-1,6-naphthyridin-3-yl)-3H-benzo[b]azepine-4,8-dicarboxamide]"

# Target: T2, TLR8 (Homo sapiens, UniProt Q9NR97)
# T2 construct: host or cells: HEK293 (HEK-BLUE-hTLR8)
# T2 sequence (Q9NR97 27-1041): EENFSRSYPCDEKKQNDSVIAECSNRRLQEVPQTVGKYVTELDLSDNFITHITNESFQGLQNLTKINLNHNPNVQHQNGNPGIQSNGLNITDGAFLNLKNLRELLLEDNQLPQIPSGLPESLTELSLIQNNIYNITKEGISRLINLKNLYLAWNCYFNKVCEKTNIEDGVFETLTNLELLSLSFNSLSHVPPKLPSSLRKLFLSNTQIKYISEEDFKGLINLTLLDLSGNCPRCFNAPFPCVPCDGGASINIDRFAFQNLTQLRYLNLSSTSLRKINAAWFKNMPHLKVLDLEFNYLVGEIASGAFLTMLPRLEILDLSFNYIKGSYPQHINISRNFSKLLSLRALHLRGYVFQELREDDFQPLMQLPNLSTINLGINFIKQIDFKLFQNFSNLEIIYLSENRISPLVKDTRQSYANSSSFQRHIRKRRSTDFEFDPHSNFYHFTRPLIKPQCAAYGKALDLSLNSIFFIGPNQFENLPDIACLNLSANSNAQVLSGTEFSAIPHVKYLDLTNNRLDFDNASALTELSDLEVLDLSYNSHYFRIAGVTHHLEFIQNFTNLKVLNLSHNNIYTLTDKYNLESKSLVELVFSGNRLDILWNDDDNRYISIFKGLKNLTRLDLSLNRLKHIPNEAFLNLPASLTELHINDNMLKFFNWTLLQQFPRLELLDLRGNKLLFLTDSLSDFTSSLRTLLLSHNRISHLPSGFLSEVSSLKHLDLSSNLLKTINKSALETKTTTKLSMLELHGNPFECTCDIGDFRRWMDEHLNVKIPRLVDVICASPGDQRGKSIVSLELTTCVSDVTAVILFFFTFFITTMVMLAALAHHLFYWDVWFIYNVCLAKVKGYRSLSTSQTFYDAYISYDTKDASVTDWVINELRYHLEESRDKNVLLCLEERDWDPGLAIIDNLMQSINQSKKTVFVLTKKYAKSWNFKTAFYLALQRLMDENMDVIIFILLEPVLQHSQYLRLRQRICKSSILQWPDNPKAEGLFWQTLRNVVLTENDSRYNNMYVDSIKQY
# Assay: Cell activity assay of TLR8 (HEK-BLUE-hTLR8, SEAP reporter, Quanti-Blue)
# Format: cell-based
# Details: HEK-BLUE-hTLR8 cells, 24 hours
# Protocol: as §1, §2
# HEK-BLUE-hTLR7 and HEK-BLUE-hTLR8 cell lines were purchased from Invivogen company and cultured in DMEM medium containing 4.5 g/L glucose (Sigma-Aldrich) and 10% fetal bovine serum under a condition of a temperature of 37° C., a humidity of 95%, and 5% CO2.
# The test concentration of the compound ranged from 0.5 nM to 15 μM, with a total of 10 concentration gradients. TLR7 or TLR8 agonists with known activity were added thereto as positive controls, and 1 μL of DMSO as a negative control.
# Cell treatment was as follows: The cells were removed from the incubator and centrifuged to remove the culture medium, resuspended in a T-150 flask with 10 mL of pre-warmed PBS. 12 mL of pre-warmed culture medium was added thereto, and the cells were pipetted gently up and down, and counted under a microscope. A single cell suspension of 200,000 cells/mL was prepared immediately with culture medium, and 200 μL/well (40,000 cells/well) of the cell suspension was added to a 96-well plate. The final concentration of DMSO was 0.5%.
# The compound was added thereto, and the mixture was incubated in a 5% CO2 incubator at 37° C. for 24 hours.
# 20 μL/well of supernatant was pipetted into 180 μL of Quanti-Blue preheated to 37° C., and the mixture was incubated at 37° C. for 1.5 hours, and the absorbance (OD value) at 650 nm was measured with a spectrophotometer. The calculation formula for the agonistic effect is as follows: • Effect %=(average OD value of the administration group-average OD value of the DMSO group)/(average OD value of the positive drug group-average OD value of the DMSO group)×100 • The concentration-effect curves were fitted with Graphpad software, and EC50 was calculated. The test results are shown in Table 4 (A represents <100 nM, B represents 100 nM to 250 nM, C represents 250 nM to […], D represents >2 μM, / represents not tested).
row,EC50 [nM],SMILES
1,100 to 250,"CCCN(CCO)C(=O)C1=Cc2ccc(C3(C(=O)Nc4cncc(CN)c4)CC3)cc2N=C(N)C1 [Compound 12, 2-amino-8-(1-((5-(aminomethyl)pyridin-3-yl)carbamoyl)cyclopropyl)-N-(2-hydroxyethyl)-N-n-propyl-3H-benzo[b]azepine-4-carboxamide]"
2,250 to 1000,"CCCN(CCC)C(=O)C1=Cc2ccc(C(=O)Nc3cnc4c(c3)CNCC4)nc2N=C(N)C1 [Compound 1, 8-amino-N^6,N^6-di-n-propyl-N^2-(5,6,7,8-tetrahydro-1,6-naphthyridin-3-yl)-7H-pyrido[2,3-b]azepine-2,6-dicarboxamide]"
3,100 to 250,"CCCN(CCC)C(=O)C1=Cc2ccc(C3(C(=O)Nc4cnc5c(c4)CNCC5)CC3)cc2N=C(N)C1 [Compound 3, 2-amino-N,N-di-n-propyl-8-(1-((5,6,7,8-tetrahydro-1,6-naphthyridin-3-yl)carbamoyl)cyclopropyl)-3H-benzo[b]azepine-4-carboxamide]"
4,< 100,"CCCN(CCC)C(=O)C1=Cc2c(F)cc(C3(C(=O)Nc4cnc5c(c4)CNCC5)CC3)cc2N=C(N)C1 [Compound 5, 2-amino-6-fluoro-N,N-di-n-propyl-8-(1-((5,6,7,8-tetrahydro-1,6-naphthyridin-3-yl)carbamoyl)cyclopropyl)-3H-benzo[b]azepine-4-carboxamide]"
5,250 to 1000,"CCCN(CCO)C(=O)C1=Cc2ccc(C(=O)Nc3cnc4c(c3)CNCC4)cc2N=C(N)C1 [Compound 13, 2-amino-N^4-(2-hydroxyethyl)-N^4-n-propyl-N^8-(5,6,7,8-tetrahydro-1,6-naphthyridin-3-yl)-3H-benzo[b]azepine-4,8-dicarboxamide]"
